What all share (format): cell-based
In one assay the target is T1, human TLR7 (Homo sapiens, UniProt Q9NYK1).
T1 construct: host or cells: HEK-Blue cells (HEK293-derived reporter line)
T1 sequence (Q9NYK1 27-1049): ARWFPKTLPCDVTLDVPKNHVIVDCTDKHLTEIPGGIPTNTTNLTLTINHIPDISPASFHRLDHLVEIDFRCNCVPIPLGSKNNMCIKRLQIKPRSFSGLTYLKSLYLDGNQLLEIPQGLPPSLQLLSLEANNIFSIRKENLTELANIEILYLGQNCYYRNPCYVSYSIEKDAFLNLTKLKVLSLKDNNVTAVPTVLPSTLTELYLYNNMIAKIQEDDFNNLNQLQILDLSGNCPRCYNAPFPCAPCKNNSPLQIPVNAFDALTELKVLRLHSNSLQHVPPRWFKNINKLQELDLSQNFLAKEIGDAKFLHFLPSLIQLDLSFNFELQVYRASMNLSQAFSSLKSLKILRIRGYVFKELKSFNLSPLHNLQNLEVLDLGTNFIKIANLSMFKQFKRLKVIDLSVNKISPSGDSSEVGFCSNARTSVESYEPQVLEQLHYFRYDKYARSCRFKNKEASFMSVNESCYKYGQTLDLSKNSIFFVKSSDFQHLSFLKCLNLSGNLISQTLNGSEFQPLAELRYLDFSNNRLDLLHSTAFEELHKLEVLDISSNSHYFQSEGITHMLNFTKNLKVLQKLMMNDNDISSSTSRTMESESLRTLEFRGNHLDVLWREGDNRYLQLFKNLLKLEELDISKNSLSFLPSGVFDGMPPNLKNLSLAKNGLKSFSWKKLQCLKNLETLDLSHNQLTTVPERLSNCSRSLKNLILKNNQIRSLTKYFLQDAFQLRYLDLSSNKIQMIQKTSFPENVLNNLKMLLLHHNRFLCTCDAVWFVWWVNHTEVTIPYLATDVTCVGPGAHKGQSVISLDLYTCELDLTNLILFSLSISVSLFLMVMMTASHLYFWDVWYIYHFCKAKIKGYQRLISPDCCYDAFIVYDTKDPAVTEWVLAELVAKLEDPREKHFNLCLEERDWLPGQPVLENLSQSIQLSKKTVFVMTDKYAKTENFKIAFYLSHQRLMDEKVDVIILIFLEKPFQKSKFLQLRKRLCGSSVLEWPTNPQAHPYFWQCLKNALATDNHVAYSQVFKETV
Nature of the assay: TLR7 inhibition reporter assay (HEK-Blue cells, SEAP reporter, gardiquimod stimulation). The following applies: HEK-Blue cells overexpressing human TLR7, SEAP reporter, gardiquimod 7.5 μM. The method, boiled down: (§1)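 Percent inhibition of agonist-induced SEAP secretion in HEK-Blue cells after 22 h at 37 °C. Stimuli: 7.5 μM gardiquimod, 15.9 μM R848, 5 nM ODN2006 for TLR7, TLR8 and TLR9, added after 30 min compound exposure over a 0.05 nM–50 μM range.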

Another assay addresses T2, human TLR9 (Homo sapiens, UniProt Q9NR96).
T2 construct: host or cells: HEK-Blue cells (HEK293-derived reporter line)
T2 sequence (Q9NR96 26-1032): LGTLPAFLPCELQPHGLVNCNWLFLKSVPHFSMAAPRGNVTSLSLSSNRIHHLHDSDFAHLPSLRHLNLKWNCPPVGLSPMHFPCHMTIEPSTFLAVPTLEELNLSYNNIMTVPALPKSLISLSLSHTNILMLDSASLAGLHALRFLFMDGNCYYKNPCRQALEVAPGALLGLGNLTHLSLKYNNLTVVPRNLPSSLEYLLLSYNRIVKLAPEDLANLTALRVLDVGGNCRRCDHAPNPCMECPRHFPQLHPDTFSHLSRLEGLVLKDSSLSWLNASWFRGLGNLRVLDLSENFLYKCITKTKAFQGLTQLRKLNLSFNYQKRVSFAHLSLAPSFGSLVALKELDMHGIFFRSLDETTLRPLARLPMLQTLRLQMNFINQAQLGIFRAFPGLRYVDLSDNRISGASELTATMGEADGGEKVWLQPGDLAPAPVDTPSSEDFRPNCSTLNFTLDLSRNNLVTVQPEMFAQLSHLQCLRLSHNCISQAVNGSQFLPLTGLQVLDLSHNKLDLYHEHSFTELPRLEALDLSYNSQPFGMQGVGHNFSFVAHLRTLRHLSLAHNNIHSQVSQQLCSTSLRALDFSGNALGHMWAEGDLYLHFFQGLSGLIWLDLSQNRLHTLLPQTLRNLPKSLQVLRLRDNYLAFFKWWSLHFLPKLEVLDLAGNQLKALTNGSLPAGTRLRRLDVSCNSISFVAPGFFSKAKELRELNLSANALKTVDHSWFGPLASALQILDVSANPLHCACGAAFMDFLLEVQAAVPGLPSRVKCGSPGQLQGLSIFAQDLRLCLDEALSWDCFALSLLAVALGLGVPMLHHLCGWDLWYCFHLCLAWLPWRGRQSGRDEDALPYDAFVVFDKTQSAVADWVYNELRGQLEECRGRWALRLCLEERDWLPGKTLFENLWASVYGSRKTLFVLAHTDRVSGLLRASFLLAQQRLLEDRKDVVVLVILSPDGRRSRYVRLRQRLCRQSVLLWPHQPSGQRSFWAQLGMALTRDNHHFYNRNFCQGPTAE
The assay is described as follows: TLR9 inhibition reporter assay (HEK-Blue cells, SEAP reporter, ODN2006 stimulation). The following applies: HEK-Blue cells overexpressing human TLR9, SEAP reporter, ODN2006 5 nM. The method, boiled down: as §1
On the technique in general: A reporter such as luciferase makes a cellular process visible.

For another assay, the target named is T3, human TLR8 (Homo sapiens, UniProt Q9NR97).
T3 construct: host or cells: HEK-Blue cells (HEK293-derived reporter line)
T3 sequence (Q9NR97 27-1041): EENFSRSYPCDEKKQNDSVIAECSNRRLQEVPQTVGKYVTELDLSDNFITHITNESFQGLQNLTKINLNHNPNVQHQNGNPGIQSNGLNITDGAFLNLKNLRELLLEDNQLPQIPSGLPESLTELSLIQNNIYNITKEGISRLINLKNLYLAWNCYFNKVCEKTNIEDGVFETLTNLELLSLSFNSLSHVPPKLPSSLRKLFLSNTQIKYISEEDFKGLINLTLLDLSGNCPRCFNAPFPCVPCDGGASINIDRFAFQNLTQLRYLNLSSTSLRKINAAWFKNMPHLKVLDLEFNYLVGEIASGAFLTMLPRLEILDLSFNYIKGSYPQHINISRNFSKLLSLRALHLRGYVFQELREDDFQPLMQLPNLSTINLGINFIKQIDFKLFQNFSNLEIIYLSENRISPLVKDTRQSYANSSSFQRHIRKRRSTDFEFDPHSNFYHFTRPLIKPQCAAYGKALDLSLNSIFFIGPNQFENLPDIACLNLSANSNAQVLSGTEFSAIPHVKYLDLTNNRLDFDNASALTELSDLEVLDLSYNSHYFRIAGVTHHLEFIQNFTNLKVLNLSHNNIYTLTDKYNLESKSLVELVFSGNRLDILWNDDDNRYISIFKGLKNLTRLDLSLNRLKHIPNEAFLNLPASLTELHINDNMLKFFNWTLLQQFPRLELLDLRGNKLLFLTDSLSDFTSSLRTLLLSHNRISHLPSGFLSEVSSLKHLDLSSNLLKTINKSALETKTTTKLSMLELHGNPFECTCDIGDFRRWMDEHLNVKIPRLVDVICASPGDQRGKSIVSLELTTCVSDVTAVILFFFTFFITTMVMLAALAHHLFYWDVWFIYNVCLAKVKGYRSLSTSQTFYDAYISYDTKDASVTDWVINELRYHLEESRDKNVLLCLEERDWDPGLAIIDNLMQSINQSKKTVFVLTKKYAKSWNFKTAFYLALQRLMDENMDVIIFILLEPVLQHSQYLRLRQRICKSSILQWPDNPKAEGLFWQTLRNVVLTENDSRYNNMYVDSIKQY
Nature of the assay: TLR8 inhibition reporter assay (HEK-Blue cells, SEAP reporter, R848 stimulation). The following applies: HEK-Blue cells overexpressing human TLR8, SEAP reporter, R848 15.9 μM. In a few lines:
as §1

These results are taken from patent US11739098B2 (BRISTOL-MYERS SQUIBB COMPANY, priority 2017, dated 2023).

What is called IC50 is the concentration that inhibits the measured activity by half. A low value points to inhibition by little substance. Turning to `CC1CC(N2CCC(c3ccc4[nH]c(-c5ccnc6[nH]ncc56)c(C(C)C)c4c3)CC2)CCN1` (stereo not drawn) [Example 820, 4-(3-isopropyl-5-(2′-methyl-[1,4′-bipiperidin]-4-yl)-1H-indol-2-yl)-1H-pyrazolo[3,4-b]pyridine], the IC50 at human TLR7, at human TLR9 and against human TLR8 was less than 100 nM throughout.
For `CC(C)c1c(-c2ccnc3[nH]ncc23)[nH]c2ccc(C3CCN(C(=O)CN4CC[C@H](N(C)C)C4)CC3)cc12` [Example 590, (S)-2-(3-(dimethylamino)pyrrolidin-1-yl)-1-(4-(3-isopropyl-2-(1H-pyrazolo [3,4-b]pyridin-4-yl)-1H-indol-5-yl)piperidin-1-yl)ethan-1-one], the IC50 at human TLR7 was less than 100 nM; on human TLR9, 100 to 1000 nM; against human TLR8, less than 100 nM.
As to `Cc1cc(-c2[nH]c3ccc(C4CCNCC4)cc3c2C(C)C)nc2scnc12` [Example 101, 5-(3-isopropyl-5-(piperidin-4-yl)-1H-indol-2-yl)-7-methylthiazolo[5,4-b]pyridine], the half-maximal inhibitory concentration (IC50) is less than 100 nM against human TLR7, 1000 to 50000 nM at human TLR9 and less than 100 nM against human TLR8.
As for `Cc1ccnc2c1c(-c1[nH]c3ccc(C4CCN(C(=O)CN(C)C)CC4)cc3c1C(C)C)cn2C` [Example 457, 1-(4-(2-(1,4-dimethyl-1H-pyrrolo[2,3-b]pyridin-3-yl)-3-isopropyl-1H-indol-5-yl)piperidin-1-yl)-2-(dimethylamino)ethan-1-one], the IC50 against human TLR7 is less than 100 nM; on human TLR9, 1000 to 50000 nM; against human TLR8, less than 100 nM.
Consider `CCc1c(-c2ccnc3[nH]ccc23)[nH]c2ccc(C3CCN(C4CCN(C(C)C)CC4)CC3)cc12` [Example 850, 4-(3-ethyl-5-(1′-isopropyl-[1,4′-bipiperidin]-4-yl)-1H-indol-2-yl)-1H-pyrrolo[2,3-b]pyridine], for which the half-maximal inhibitory concentration (IC50) against human TLR7 was less than 100 nM; against human TLR9 it was 100 to 1000 nM; at human TLR8, less than 100 nM.
Turning to `COc1cc(-c2[nH]c3ccc(C4CCN(CC(=O)N(C)C)CC4)cc3c2C(C)C)cn2cc(C(=O)N(C)C)nc12` [Example 432, 6-(5-(1-(2-(dimethylamino)-2-oxoethyl)piperidin-4-yl)-3-isopropyl-1H-indol-2-yl)-8-methoxy-N,N-dimethylimidazo[1,2-a]pyridine-2-carboxamide], the half-inhibitory concentration (IC50) on human TLR7 is less than 100 nM; against human TLR9, 1000 to 50000 nM; at human TLR8, less than 100 nM.
In the case of `CC(C)c1c(-c2ccc3nccn3c2)[nH]c2ccc(C3CCN(C4CCN(C(C)C)CC4)CC3)cc12` [Example 803, 6-(3-isopropyl-5-(1′-isopropyl-[1,4′-bipiperidin]-4-yl)-1H-indol-2-yl)imidazo[1,2-a]pyridine], the values for the concentration for half-maximal inhibition (IC50) on human TLR7, on human TLR9 and on human TLR8 were less than 100 nM, 100 to 1000 nM and less than 100 nM, respectively.
Consider `Cc1cc(-c2[nH]c3ccc(C4CCNCC4)cc3c2C(C)C)cc2c(C(=O)N(C)C)cnn12` [Example 275, 5-(3-isopropyl-5-(piperidin-4-yl)-1H-indol-2-yl)-N,N,7-trimethylpyrazolo[1,5-a]pyridine-3-carboxamide], for which the results for the IC50 at human TLR7, against human TLR9 and at human TLR8 were 100 to 1000 nM, 1000 to 50000 nM and greater than 3130 nM, respectively.
For the compound `CNC(=O)CN1CCC(c2ccc3[nH]c(-c4cn5ccnc5c(Cl)c4C)c(C(C)C)c3c2)CC1` [Example 414, 2-(4-(2-(8-chloro-7-methylimidazo[1,2-a]pyridin-6-yl)-3-isopropyl-1H-indol-5-yl)piperidin-1-yl)-N-methylacetamide], the results for the IC50 against human TLR7, against human TLR9 and on human TLR8 were less than 100 nM, 1000 to 50000 nM and less than 100 nM, respectively.
Turning to `CNC(=O)CN1CCC(c2ccc3[nH]c(-c4cc(C)nc5ccccc45)c(C(C)C)c3c2)CC1` [Example 328, 2-(4-(3-isopropyl-2-(2-methylquinolin-4-yl)-1H-indol-5-yl)piperidin-1-yl)-N-methylacetamide], the IC50 on human TLR7 was less than 100 nM; on human TLR9, 1000 to 50000 nM; on human TLR8, less than 100 nM.
With `CNCC(=O)N1CCC(c2ccc3[nH]c(-c4cc(C)c5nccn5c4)c(C(C)C)c3c2)CC1` [Example 557, 1-(4-(3-isopropyl-2-(8-methylimidazo[1,2-a]pyridin-6-yl)-1H-indol-5-yl)piperidin-1-yl)-2-(methylamino)ethan-1-one], the 50% inhibitory concentration (IC50) against human TLR7 was less than 100 nM; at human TLR9 it was 100 to 1000 nM; against human TLR8, less than 100 nM.
`CC(C)c1c(-c2ccn3ncnc3c2)[nH]c2ccc(C3CCNCC3)cc12` [Example 197, 7-(3-isopropyl-5-(piperidin-4-yl)-1H-indol-2-yl)-[1,2,4]triazolo[1,5-a]pyridine]: the values for the IC50 against human TLR7, on human TLR9 and against human TLR8 were less than 100 nM, 1000 to 50000 nM and less than 100 nM, respectively.
As for `Cc1cc(-c2[nH]c3ccc(C4CCN(C5COC5)CC4)cc3c2C(C)C)cc2cnnn12` [Example 744, 5-(3-isopropyl-5-(1-(oxetan-3-yl)piperidin-4-yl)-1H-indol-2-yl)-7-methyl-[1,2,3]triazolo[1,5-a]pyridine], the half-inhibitory concentration (IC50) is less than 100 nM against human TLR7, 1000 to 50000 nM on human TLR9 and less than 100 nM at human TLR8.
